Conditions in all cases: exposure window: 6 hpf to 120 hpf, static, assay age: 120 hpf (5 dpf)
The subject of assay [1] is Danio rerio larvae (Tropical 5D). The assay can be described thus: mean distance moved of exposed larvae, dark phase (µm per frame (1/25 s)); higher = more movement. Here is the method: (§1)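 Larval photomotor response in Tropical 5D wild-type zebrafish. Larvae were statically exposed to each chemical from 6 hpf to 5 dpf in 96-well plates; morphologically abnormal larvae were excluded. At 120 hpf, larvae were tracked with Ethovision XT (25 frames/s) over the 2nd cycle of 3 min light and 3 min dark. Values are the mean movement metric of exposed larvae per phase; same-plate control means (plate-dependent baseline) are given as conditions.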

Assay [2] has the same test system. Nature of the assay: mean distance moved of exposed larvae, light phase (µm per frame (1/25 s)); higher = more movement. Here is the method: as §1
Assay [3] has the same test system. Nature of the assay: mean angular velocity of exposed larvae, dark phase (angular velocity (unit not stated)); higher = more movement. Here is the method: as §1
Assay [4] has the same test system. The assay can be described thus: mean angular velocity of exposed larvae, light phase (angular velocity (unit not stated)); higher = more movement. As to the method:
as §1

SMILES strings stand for the structures.

On to `CN(CC(=O)O)S(=O)(=O)C(F)(F)C(F)(F)C(F)(F)C(F)(F)C(F)(F)C(F)(F)C(F)(F)C(F)(F)F` [N-methylperfluoro-1-octanesulfonamidoacetic acid], for which the “mean distance moved of exposed larvae” value in assay [1] (0.25 µM) was 6.38; in assay [2] (0.25 µM), 1.43. Moreover, the entries for the “mean angular velocity of exposed larvae” value in assay [3] (0.25 µM) and in assay [4] (0.25 µM) were 0.256 and 0.0567, respectively.

For `NC(=O)C(F)(F)C(F)(F)C(F)(F)C(F)(F)F` [Nonafluoropentanamide], the “mean distance moved of exposed larvae” value in assay [1] (0.015 µM) turned out to be 25.4; in assay [1] (0.046 µM), 26.1; in assay [1] (0.14 µM), 19.4; in assay [1] (0.41 µM), 25.8; in assay [1] (1.23 µM), 17.3; in assay [1] (3.7 µM) it was 12.1. The “mean distance moved of exposed larvae” value came to 23.9 in assay [1] (11.1 µM); 26.5 in assay [1] (33.3 µM); 18.1 in assay [1] (66.5 µM); 19.5 in assay [1] (100 µM); 2.24 in assay [2] (0.015 µM); 4.1 in assay [2] (0.046 µM). Besides, the “mean distance moved of exposed larvae” value stood at 3.32 in assay [2] (0.14 µM); 2.83 in assay [2] (0.41 µM); 1.91 in assay [2] (1.23 µM); 2.44 in assay [2] (3.7 µM); 3.86 in assay [2] (11.1 µM); 2.5 in assay [2] (33.3 µM). Also, the “mean distance moved of exposed larvae” value is 2.36 in assay [2] (66.5 µM) and 2.76 in assay [2] (100 µM). Also, the “mean angular velocity of exposed larvae” value in assay [3] (0.015 µM) was 0.911; in assay [3] (0.046 µM) it was 1.03; in assay [3] (0.14 µM), 0.788; in assay [3] (0.41 µM), 0.731; in assay [3] (1.23 µM), 0.649; in assay [3] (3.7 µM), 0.476. In addition, the “mean angular velocity of exposed larvae” value in assay [3] (11.1 µM) came out at 0.903; in assay [3] (33.3 µM), 0.989; in assay [3] (66.5 µM), 0.804; in assay [3] (100 µM) it was 0.714; in assay [4] (0.015 µM) it was 0.107; in assay [4] (0.046 µM), 0.153. For the same compound, the “mean angular velocity of exposed larvae” value came to 0.163 in assay [4] (0.14 µM); 0.0614 in assay [4] (0.41 µM); 0.124 in assay [4] (1.23 µM); 0.0715 in assay [4] (3.7 µM); 0.078 in assay [4] (11.1 µM); 0.103 in assay [4] (33.3 µM). The “mean angular velocity of exposed larvae” value in assay [4] (66.5 µM) was 0.0723; in assay [4] (100 µM), 0.107.

Take `O=C(O)C(F)(F)C(F)(F)C(F)(F)C(F)(F)C(F)(F)C(F)(F)C(F)(F)C(F)(F)C(F)(F)C(F)(F)C(F)(F)C(F)(F)C(F)(F)C(F)(F)C(F)(F)F` [Perfluoro-n-hexadecanoic acid]: the “mean distance moved of exposed larvae” value in assay [1] (0.25 µM) turned out to be 27.2; in assay [2] (0.25 µM) it was 6.65. For the same compound, the “mean angular velocity of exposed larvae” value in assay [3] (0.25 µM) is 0.833; in assay [4] (0.25 µM), 0.178.

As to `O=C(O)C(F)(F)C(F)(F)C(F)(F)C(F)(F)C(F)(F)C(F)(F)C(F)(F)C(F)(F)C(F)(F)C(F)(F)C(F)(F)C(F)(F)C(F)(F)C(F)(F)C(F)(F)C(F)(F)C(F)(F)F` [Perfluoro-n-octadecanoic acid], the entries for the “mean distance moved of exposed larvae” value in assay [1] (0.25 µM) and in assay [2] (0.25 µM) were 10.3 and 3.51, respectively. Besides, the “mean angular velocity of exposed larvae” value in assay [3] (0.25 µM) was found to be 0.571; in assay [4] (0.25 µM) it was 0.146.

`O=P(O)(O)C(F)(F)C(F)(F)C(F)(F)C(F)(F)C(F)(F)C(F)(F)C(F)(F)C(F)(F)C(F)(F)C(F)(F)F` [Perfluorodecylphosphonic acid]: the “mean distance moved of exposed larvae” value in assay [1] (0.25 µM) is 9.21; in assay [2] (0.25 µM), 1.45. Further, the “mean angular velocity of exposed larvae” value is 0.34 in assay [3] (0.25 µM) and 0.0471 in assay [4] (0.25 µM).
